Measured values reported in article PMC4142866, “The chemoenzymatic synthesis of clofarabine and related 2′-deoxyfluoroarabinosyl nucleosides: the electronic and stereochemical factors determining substrate recognition by E. coli nucleoside phosphorylases” (Beilstein Journal of Organic Chemistry, 2014).

Molecular target: T1, recombinant E. coli purine nucleoside phosphorylase (PNP) (Escherichia coli, UniProt P0ABP8)
T1 construct: gene deoD
T1 sequence (P0ABP8 2-239): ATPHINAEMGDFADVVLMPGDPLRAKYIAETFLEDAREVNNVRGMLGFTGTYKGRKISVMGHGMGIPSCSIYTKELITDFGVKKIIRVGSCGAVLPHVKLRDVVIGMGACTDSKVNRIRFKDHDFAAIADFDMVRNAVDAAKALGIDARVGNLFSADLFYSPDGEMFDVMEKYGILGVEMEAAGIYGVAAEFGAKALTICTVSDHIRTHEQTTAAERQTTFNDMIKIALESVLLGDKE
Assay: inhibition of PNP nucleoside synthesis
Type: biochemical
Settings: not a substrate; moderate inhibitor of the synthetic reaction; no value

Structure (SMILES) | inhibition of PNP nucleoside synthesis
Nc1nc(=O)n2ccn([C@@H]3O[C@H](CO)[C@@H](O)[C@@H]3O)c2n1 [4b, arabinoside 4b] | nucleosides 4b and 5b are not substrates for E. coli PNP and moderately inhibit
O=c1[nH]cnc2c1cnn2[C@@H]1O[C@H](CO)[C@@H](O)[C@@H]1O [5b, arabinoside 5b] | nucleosides 4b and 5b are not substrates for E. coli PNP and moderately inhibit
